Data: patent US20240398969A1, “ANTIBODY-DRUG CONJUGATES FOR TREATING INFECTIONS OF HUMAN IMMUNODEFICIENCY VIRUS (HIV)” (priority 2023, published 2024)
Read-outs that look alike come from different tables or passages of the source.

Key:
Type in all cases: cell-based
HDAC [1] = experiment: Cellular HDAC enzymatic assay (FLUOR DE LYS HDAC fluorometric cellular activity assay) in CD4 enriched Jurkat T cells
Method: (§1) Cellular HDAC enzymatic assay was conducted for 3 days with the CD4 enriched Jurkat T lymphocyte cells or B lymphocyte cells treated with various amounts of drugs using FLUOR DE LYS® HDAC fluorometric cellular activity assay kit (Enzo Life Sciences, Inc., cat. No: BML-AK503-0001). The assay was performed following the manufacturer's instructions. […] The Fluor de Lys substrate was added in a culture media. After 30 min 37° C., 1 volume of the developer was added. After 15 min 37° C., the fluorophore was excited with 355 nm light and the emitted light (450 nm) was being detected on a fluorometric plate reader (Clariostar: BMG, Buckinghamshire, UK). For each experiment, controls (containing CD4 enriched Jurkat T lymphocyte cells or Ramos B lymphocyte cells and buffer), a blank incubation (containing buffer but no CD4 enriched Jurkat T lymphocyte cells or Ramos B lymphocyte cells) and samples (containing compound dissolved in DMSO or ADCs dissolved in PBS and further diluted in medium) were run in parallel. In each test the blank value was subtracted from both the control and the sample values. The control sample represented 100% of substrate deacetylation. For each sample the fluorescence was expressed as a percentage of the mean value of the controls.

[2] = test system: Jurkat CD4^+ (human T lymphocyte cells); experiment: Cytotoxicity assay, CellTiter-Glo Luminescent Cell Viability Assay, Jurkat; settings: 72 h, read-out: IC50 value of Luminescent Cell Viability Assay
Method: In vitro cytotoxicity assay was conducted for 3 days with the CD4 enriched Jurkat T cells and treated with various amounts of drugs using CellTiter-Glo® Luminescent Cell Viability Assay Kit (Promega, G7571). The assay was performed following the manufacturer's instructions. Briefly, cells were plated in 96-well plates at […] in 100 μl RPMI 1640 medium with 10% heat-inactivated Fetal Bovine Serum. The following day, a serial ten-fold dilution for eight points of drugs (Romidepsin, TMB-355-ADC, and TMB-355) was used. The final concentration in the test was ranging from 1×10^3 nM to 1×10^−4 nM for Romidepsin, from 6.67×10^2 nM to 6.67×10^−5 nM for TMB-355-ADC and TMB-355. The cells were then incubated at 37° C. for 72 h. Subsequently, 100 μL/well of CellTiter-Glo reagent was added and the cells were shaken for 2 minutes and then incubated for an additional 10 minutes at room temperature. After the incubation time, luminescence (light) was measured in a luminometer (Clariostar: BMG, Buckinghamshire, UK). The IC50 corresponds to the drug concentration which achieves 50% activity of untreated control cultures. IC50 values were calculated using the software package Prism 6.0 (GraphPad Software Inc., San Diego, Calif.) with variable slope option.

[3] = test system: Ramos(human B lymphocyte); experiment: Cytotoxicity assay, CellTiter-Glo Luminescent Cell Viability Assay, Ramos; settings: 72 h, read-out: IC50 value of Luminescent Cell Viability Assay
HDAC [4] = experiment: Cellular HDAC enzymatic assay (FLUOR DE LYS HDAC fluorometric cellular activity assay) in Ramos B lymphocyte cells
Method: as §1

| Compound | IC50 (HDAC [1]; read-out: IC50 value of Cellular HDAC enzymatic assay; Jurkat CD4^+ (human T lymphocyte cells), 3 days) [nM] | IC50 ([2]; Homo sapiens, Jurkat) [nM] | IC50 ([3]; Homo sapiens, Ramos) [nM] | IC50 (HDAC [4]; read-out: IC50 value of Cellular HDAC enzymatic assay; Ramos (human B lymphocyte), 3 days) [nM] | IC50 (HDAC [1]; Jurkat CD4^+ (human T lymphocyte cells), 3 days; read-out: IC50 value of Cellular HDAC enzymatic assay) [nM] | IC50 ([2]; Jurkat CD4^+ (human T lymphocyte cells)) [nM] | IC50 ([3]; Ramos (human B lymphocyte)) [nM] | IC50 (HDAC [4]; Ramos (human B lymphocyte), 3 days; read-out: IC50 value of Cellular HDAC enzymatic assay) [nM] |
| --- | --- | --- | --- | --- | --- | --- | --- | --- |
| C/C=C1\NC(=O)[C@H]2CSSCC/C=C/[C@H](CC(=O)N[C@H](C(C)C)C(=O)N2)OC(=O)[C@H](C(C)C)NC1=O [Romidepsin] | 1.6 | 1.6 | 2.2 | 3.9 | – | – | – | – |
| TMB-355 | – | – | – | – | > 667 | > 667 | > 667 | > 667 |
